SMILES strings stand for the structures.

The target of series [1] is T1, recombinant human secreted phospholipase A2 (Homo sapiens, UniProt P14555).
T1 sequence (P14555 21-144): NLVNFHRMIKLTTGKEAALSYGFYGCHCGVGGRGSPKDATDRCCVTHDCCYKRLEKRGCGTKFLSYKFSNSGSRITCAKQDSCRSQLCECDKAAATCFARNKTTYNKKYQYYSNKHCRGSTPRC
The series is described as follows: Chromogenic assay of recombinant human secreted phospholipase A2 inhibition. As to conditions: diheptanoyl thio-PC substrate, pH 7.5, 40° C., 30 minutes, absorbance at 405 nanometers; read-out: Inhibition of human secreted PLA2 IC50 ± mean deviation (3-4 tests). The class given is biochemical. An excerpt: The following chromogenic assay procedure was used to identify and evaluate inhibitors of recombinant human secreted phospholipase A2. The assay described herein has been adapted for high volume screening using 96 well microtiter plates. A general description of this assay method is found in the article, “Analysis of Human Synovial Fluid Phospholipase A2 on Short Chain Phosphatidylcholine-Mixed Micelles: Development of a Spectrophotometric Assay Suitable for a Microtiterplate Reader”, by Laure J. Reynolds, Lori L. Hughes, and Edward A Dennis, Analytical Biochemistry, 204, pp. 190-197, 1992 (the disclosure of which is incorporated herein by reference):
Adjust pH to 4.5 with acetic acid […]
A measured volume of racemic dipheptanoyl thio PC supplied in chloroform at a concentration of 100 mg/ml is taken to dryness and redissolved in 10 millimolar […]
5. Read absorbance of wells at 405 nanometers with an automatic plate reader.
All compounds were tested in triplicate. […] Compounds initially found to be active were reassayed to confirm their activity and, if sufficiently active, IC50 values were determined. […] In all cases, % inhibition measured at 405 nanometers generated by enzyme reactions containing inhibitors relative to the uninhibited control reactions was determined. […] IC50 values were determined by plotting log concentration versus inhibition values in the range from 10-90% inhibition.

In the case of `CCc1c(C(=O)C(N)=O)c2ccsc2n1Cc1ccccc1` [Example 1, 2-(6-Benzyl-5-ethyl-6H-thieno[2,3-b]pyrrol-4-yl)-2-oxoacetamide], the melting point (in general, the temperature, or range, at which the solid turns liquid) was in the range of 169 to 172 °C. The 50% inhibitory concentration (IC50) (usually the midpoint of a concentration-inhibition curve) in series [1] is 5.5 µM.

The values above are taken from patent US6730694B1, “sPLA2 inhibitors” (Eli Lilly and Company, priority 2003, dated 2004).
